Laboratory results: article PMC2612642 (Antiviral research, 2008)
Converted amounts (≈) assume the structure as drawn. Where two headings read alike, the source gives them in different places. Marks after values point to notes of the source that are not given here.

Tests used:
intracellular CTP pools = format: cell-based
TC-83 strain of VEEV [1] = format: cell-based, Venezuelan equine encephalitis virus
Vero cells [2] = system: Vero cells
TC-83 strain of VEEV [3] = format: cell-based, Venezuelan equine encephalitis virus; remark: listed apart in the source
TC-83 VEEV [4] = system: TC-83 VEEV; set-up: species or system C3H/HeN mice; settings: mouse, in vivo
Vero cells [5] = system: Vero cells; remark: listed apart in the source
TC-83 strain of VEEV [6] = format: cell-based, Venezuelan equine encephalitis virus; remark: listed apart in the source
TrD VEEV = system: TrD VEEV; set-up: species or system ICR mice; settings: mouse, in vivo
TC-83 VEEV [7] = system: TC-83 VEEV; set-up: species or system C3H/HeN mice; settings: mouse, in vivo; remark: listed apart in the source
TC-83 VEEV [8] = test: microbe, parasite or virus in culture; format: cell-based, Venezuelan equine encephalitis virus
TC-83 VEEV [9] = test: microbe, parasite or virus in culture; format: cell-based; settings: Venezuelan equine encephalitis virus, read-out: EC50 (neutral red uptake)
[10] = in vivo, iv; cited from earlier work

| Compound | EC50 (NR) (TC-83 strain of VEEV [1]) [µg/mL] | IC50 (Vero cells [2]) [µg/mL] | IC50 (neutral red uptake) (Vero cells [2]) [µg/mL] | EC50 (vis) (TC-83 strain of VEEV [3]) | IC50 (visual inspection) (Vero cells [5]) [µg/mL] | EC90 (TC-83 strain of VEEV [6]) [µg/mL] | further results |
| --- | --- | --- | --- | --- | --- | --- | --- |
| Nc1ccn([C@@H]2C[C@H](CO)[C@@H](O)[C@H]2O)c(=O)n1 [(-)-carbodine] | 0.2 ± 0.0 (≈ 0.829 µM) | >100 | >100 | 0.3 ± 0.2 ^f μg/ml | >100 | 0.4 ± 0.2 (≈ 1.66 µM) | Reduction in intracellular CTP (intracellular CTP pools): 65%; Reduction of brain virus titer vs placebo (TC-83 VEEV [4]): 10 fold; Survival (TrD VEEV): all animals died; Mean time to death vs placebo (TrD VEEV; ip): slight, but significant, extension; Mortality rate (TC-83 VEEV [7]): 50%; Cytidine concentration at which activity was completely abolished (TC-83 VEEV [8]): 10 to 32 µg/mL |
| Nc1ccn([C@@H]2O[C@H](CO)[C@@H](O)[C@H]2O)c(=O)n1 [Cytidine, cytidine, reference compound] |  |  |  |  |  |  | EC50 (TC-83 VEEV [9]): > 100 µg/mL; EC50 (TC-83 VEEV [8]; Venezuelan equine encephalitis virus, read-out: EC50 (visual inspection)): > 100 µg/mL |
| Interferon alfacon-1 | 0.05 | >10 | >10 | 0.06 µg/mL | >10 | 0.06 | EC50 (visual inspection) (TC-83 VEEV [8]): 0.06 µg/mL |
| Nc1ccn([C@H]2C[C@@H](CO)[C@H](O)[C@@H]2O)c(=O)n1 (racemic) [(+/-)-carbodine, Carbocyclic cytidine] | 0.70 (≈ 2.9 µM) | >100 |  | 0.68 µg/mL (≈ 2.82 µM) |  | 1.7 (≈ 7.05 µM) |  |
| Nc1ccn([C@@H]2C=C(CO)[C@@H](O)[C@H]2O)c(=O)n1 [Cyclopentenyl cytosine] |  |  |  |  |  |  | Adverse effects in human patients with solid tumors [10]: hypotension and death |
| Nc1ccn([C@H]2C[C@@H](CO)[C@H](O)[C@@H]2O)c(=O)n1 [(+)-carbodine] | >100 | >100 |  | >100 µg/mL |  | >100 | Intracellular CTP reduction (intracellular CTP pools): not reduced; Activity against TC-83 vaccine strain of VEEV (TC-83 strain of VEEV [1]): no activity |
